Measurements as given in PubChem BioAssay AID2060625 (Molecular Pharmacology Branch, DTP, NCI, 2025).
Values joined by “and” are separate entries in the source; they are usually repeats but may differ in a detail not shown here. Equal entries are not always repeated.

System: 186277-243-T-J2-PDC spheroids with HUVEC/MSC, viability
Assay: Anticancer human tumor 186277-243-T-J2-PDC patient-derived colon adenocarcinoma cell line growth inhibition [CLK]
Conditions: for viability, T/C: stronger effect = lower value
Text: A high-throughput screen of multi-cell type tumor spheroids was designed to identify active combinations of […] and targeted small molecules. Complex spheroids include a stromal component modeled by human endothelial cells (HUVEC) and fibroblasts modeled by human mesenchymal stem cells (MSCs). The concentration ranges selected for each drug and investigational agent were based upon clinically achievable concentrations if the clinical Cmax of the agent was known.
Compounds. The drugs and investigational agents: cirtuvivint (SM08502; NSC835563), CC-671 (NSC850746), vemurafenib (NSC761431), tapotoclax (NSC804041), sotorasib (NSC818433), adagrasib (NSC831453), MRTX-1133 (NSC836407), BAY2416964 (NSC825713), copanlisib (NSC816437), inavolisib (NSC800729), abemaciclib (NSC768073), osimertinib (NSC779217), entinostat (NSC756642), eltanexor (KPT-8602, NSC794443), venetoclax (NSC766270), ceralasertib (NSC777638), bortezomib (NSC756655), olaparib (NSC753686), talazoparib (NSC767125), alisertib (NSC759677), peposertib (NSC802822), gemcitabine (NSC613327), 5-fluorouracil (NSC19893), SN-38 (NSC673596), oxaliplatin (NSC266046), paclitaxel (NSC125973), and doxorubicin (NSC123127), were obtained from the National Cancer Institute (NCI) Developmental Therapeutics Program Chemical Repository. The FDA-approved anticancer drug set is available from the Developmental Therapeutics Program at https://dtp.cancer.gov/organization/dscb/obtaining/available plates.htm. […] The stock solutions were prepared in dimethyl sulfoxide (DMSO, Sigma-Aldrich, St. Louis, MO, cat. D2650), except for the platinum complexes which were prepared in saline (Quality Biological, Gaithersburg, MD, cat. 114-055-101), at 800-fold the tested concentration and stored at -70 degrees C prior to their use. All drugs and investigational agents were tested over a range starting from a high concentration at or near the clinical Cmax and decreasing in half-log increments. If the clinical Cmax for an agent had not been determined, the highest concentration tested was 10 microM.
Cell Culture. All cells were maintained in an incubator at 37 degrees C and 5% CO2 with 95% humidity. The PDC lines were cultured according to standard operating procedures established by the NCI PDMR. Briefly, all PDCs were thawed and cultured in Matrigel-coated flasks prepared with a working solution of 1X Ham's F-12 nutrient mix, without supplementation (Invitrogen, Waltham, MA, cat. 11765054), 100 U/mL penicillin-streptomycin (Invitrogen, cat. 15140122), and 2.5% Matrigel (Corning Inc., Corning, NY, cat. 354248) for the first three passages. The 947758-054-R-J2-PDC line was cultured in 6B/Colon 1A media, which includes advanced DMEM/F-12 (Thermo Fisher Scientific, cat. 12634028), 10 mM HEPES (Thermo Fisher Scientific, cat. 15630080), 1X GlutaMAX supplement (Thermo Fisher Scientific, cat. 35050061), 0.1 mg/mL primocin (InvivoGen, cat. ant-pm-2), 10% defined fetal bovine serum, heat inactivated (HyClone Laboratories Inc., cat. SH30070.03HI), 1.25 mM N-Acetyl-L-cysteine (Sigma-Aldrich, cat. A9165), 10 mM nicotinamide (Sigma-Aldrich, cat. N0636), 1X B-27 supplement (Thermo Fisher Scientific, cat. 17504044), 1X N-2 supplement (Thermo Fisher Scientific, cat. 17502048), and 10 microM Y-27632 dihydrochloride (Tocris Bioscience, cat. 1254). The 876862-298-R-J1-PDC was cultured in 6E media, which includes all 6B/Colon 1A media components plus 50% L-WRN conditioned media (ATCC, cat. CRL-3276), 50 ng/mL recombinant human EGF recombinant protein (hEGF; Thermo Fisher Scientific, cat. PHG0311), 10 ng/mL recombinant human fibroblast growth factor 10 (hGFG-10; PeproTech, cat. 100-26), 1 ng/mL recombinant human fibroblast growth factor 2 (hFGF-2; PeproTech, cat. 100-18B), and 1 µM prostaglandin E2 (PGE2; Tocris, cat. 2296). The 227483-062-R1-J1-PDC line was cultured in Panc media, containing all 6E components except hFGF-2, with the addition of 500 nM SB-431542 (Selleckchem, cat. S1067) and 10 nM gastrin (Tocris, cat. 3006). […]

[1] = curve of first compound, second compound 0.0316 µM
[2] = curve of first compound, second compound 0.1 µM
[3] = curve of first compound, second compound 0.316 µM
[4] = curve of first compound, second compound 1 µM
[5] = curve of first compound, second compound 3.16 µM
[6] = curve of first compound, second compound 10 µM
[7] = second compound 0.0316 µM, first compound 0.00316 µM
[8] = second compound 0.0316 µM, first compound 0.01 µM
[9] = second compound 0.0316 µM, first compound 0.0316 µM
[10] = second compound 0.0316 µM, first compound 0.1 µM
[11] = second compound 0.0316 µM, first compound 0.316 µM
[12] = second compound 0.0316 µM, first compound 1 µM
[13] = second compound 0.1 µM, first compound 0.00316 µM
[14] = second compound 0.1 µM, first compound 0.01 µM
[15] = second compound 0.1 µM, first compound 0.0316 µM
[16] = second compound 0.1 µM, first compound 0.1 µM
[17] = second compound 0.1 µM, first compound 0.316 µM
[18] = second compound 0.1 µM, first compound 1 µM
[19] = second compound 0.316 µM, first compound 0.00316 µM
[20] = second compound 0.316 µM, first compound 0.01 µM
[21] = second compound 0.316 µM, first compound 0.0316 µM
[22] = second compound 0.316 µM, first compound 0.1 µM
[23] = second compound 0.316 µM, first compound 0.316 µM
[24] = second compound 0.316 µM, first compound 1 µM
[25] = second compound 1 µM, first compound 0.00316 µM
[26] = second compound 1 µM, first compound 0.01 µM
[27] = second compound 1 µM, first compound 0.0316 µM
[28] = second compound 1 µM, first compound 0.1 µM
[29] = second compound 1 µM, first compound 0.316 µM
[30] = second compound 1 µM, first compound 1 µM
[31] = second compound 3.16 µM, first compound 0.00316 µM
[32] = second compound 3.16 µM, first compound 0.01 µM
[33] = second compound 3.16 µM, first compound 0.0316 µM
[34] = second compound 3.16 µM, first compound 0.1 µM
[35] = second compound 3.16 µM, first compound 0.316 µM
[36] = second compound 3.16 µM, first compound 1 µM
[37] = second compound 10 µM, first compound 0.00316 µM
[38] = second compound 10 µM, first compound 0.01 µM
[39] = second compound 10 µM, first compound 0.0316 µM
[40] = second compound 10 µM, first compound 0.1 µM
[41] = second compound 10 µM, first compound 0.316 µM
[42] = second compound 10 µM, first compound 1 µM
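Further: compound exposure lasted seven days before readout.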
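Wherever viability, T/C is given: 100% = DMSO vehicle control wells.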

## CCN1CCN(Cc2ccc(Nc3ncc(F)c(-c4cc(F)c5nc(C)n(C(C)C)c5c4)n3)nc2)CC1 + CN1CCN(c2cc(C(=O)Nc3cc4cc(-c5cnn(C)c5)ccc4cn3)ccn2)CC1
[1]
  IC50: > 1000 nM
[2]
  IC50: > 1000 nM
[3]
  IC50: < 3.16 nM
[4]
  IC50: < 3.16 nM
[5]
  IC50: < 3.16 nM
[6]
  IC50: < 3.16 nM
[7]
  viability, T/C: 85.5%
[8]
  viability, T/C: 79.4%
[9]
  viability, T/C: 95.7%
[10]
  viability, T/C: 103%
[11]
  viability, T/C: 99%
[12]
  viability, T/C: 102%
[13]
  viability, T/C: 78.9%
[14]
  viability, T/C: 100%
[15]
  viability, T/C: 91.4%
[16]
  viability, T/C: 79.5%
[17]
  viability, T/C: 71.9%
[18]
  viability, T/C: 69.3%
[19]
  viability, T/C: 25.5%
[20]
  viability, T/C: 32.6%
[21]
  viability, T/C: 28.9%
[22]
  viability, T/C: 29.9%
[23]
  viability, T/C: 36.8%
[24]
  viability, T/C: 31.8%
[25]
  viability, T/C: 0.99%
[26]
  viability, T/C: 0.98%
[27]
  viability, T/C: 0.48%
[28]
  viability, T/C: 0.4%
[29]
  viability, T/C: 1.43%
[30]
  viability, T/C: 1.19%
[31]
  viability, T/C: 2.53%
[32]
  viability, T/C: 1.22%
[33]
  viability, T/C: 0.9%
[34]
  viability, T/C: 1.58%
[35]
  viability, T/C: 1.39%
[36]
  viability, T/C: 2.07%
[37]
  viability, T/C: 0.79%
[38]
  viability, T/C: 0.62%
[39]
  viability, T/C: 1.4%
[40]
  viability, T/C: 1.82%
[41]
  viability, T/C: 0.83%
[42]
  viability, T/C: 0.55%

## CC(=O)O[C@H]1C(=O)[C@@]2(C)[C@H]([C@H](OC(=O)c3ccccc3)[C@]3(O)C[C@H](OC(=O)[C@H](O)[C@@H](NC(=O)c4ccccc4)c4ccccc4)C(C)=C1C3(C)C)[C@]1(OC(C)=O)CO[C@@H]1C[C@@H]2O
Compound 0.0316 µM
  viability, T/C: 25.2% and 16.5%
Compound 0.1 µM
  viability, T/C: 12.1% and 8.36%
Compound 0.316 µM
  viability, T/C: 11.6% and 7.98%
Compound 1 µM
  viability, T/C: 10.8% and 6.74%
Compound 3.16 µM
  viability, T/C: 8.76% and 8.77%
Compound 10 µM
  viability, T/C: 10.4% and 7.1%
Curve of compound
  IC50: < 31.6 nM

## C#Cc1c(F)ccc2cc(O)cc(-c3ncc4c(N5CC6CCC(C5)N6)nc(OCC56CCCN5CC(F)C6)nc4c3F)c12 (stereo not given)
Compound 0.0316 µM
  viability, T/C: 95.5% and 101%
Compound 0.1 µM
  viability, T/C: 73.5% and 89.7%
Compound 0.316 µM
  viability, T/C: 69.2% and 120%
Compound 1 µM
  viability, T/C: 32% and 60%
Compound 3.16 µM
  viability, T/C: 20.9% and 34.8%
Compound 10 µM
  viability, T/C: 14.7% and 21.7%
Curve of compound
  IC50: 538 nM and 1440 nM

## Nc1ccccc1NC(=O)c1ccc(CNC(=O)OCc2cccnc2)cc1
Compound 0.0316 µM
  viability, T/C: 100% and 92.4%
Compound 0.1 µM
  viability, T/C: 88.7% and 92%
Compound 0.316 µM
  viability, T/C: 85.5% and 84.9%
Compound 1 µM
  viability, T/C: 110% and 100%
Compound 3.16 µM
  viability, T/C: 76.6% and 48%
Compound 10 µM
  viability, T/C: 23.2% and 13.7%
Curve of compound
  IC50: 5600 nM and 3010 nM

## COc1c(OCCCN2CCOCC2)ccc2c3n(c(=NC(=O)c4cnc(N)nc4)nc12)CCN3 + CN1CCN(c2cc(C(=O)Nc3cc4cc(-c5cnn(C)c5)ccc4cn3)ccn2)CC1
[1]
  IC50: 27 nM
[2]
  IC50: 7.37 nM
[3]
  IC50: < 3.16 nM
[4]
  IC50: < 3.16 nM
[5]
  IC50: < 3.16 nM
[6]
  IC50: < 3.16 nM
[7]
  viability, T/C: 93.9%
[8]
  viability, T/C: 69%
[9]
  viability, T/C: 50%
[10]
  viability, T/C: 25.4%
[11]
  viability, T/C: 14.8%
[12]
  viability, T/C: 12.5%
[13]
  viability, T/C: 68.3%
[14]
  viability, T/C: 43%
[15]
  viability, T/C: 21.3%
[16]
  viability, T/C: 7.94%
[17]
  viability, T/C: 6.07%
[18]
  viability, T/C: 5.15%
[19]
  viability, T/C: 20%
[20]
  viability, T/C: 11.7%
[21]
  viability, T/C: 3.4%
[22]
  viability, T/C: 1.12%
[23]
  viability, T/C: 1.11%
[24]
  viability, T/C: 0.75%
[25]
  viability, T/C: 2.09%
[26]
  viability, T/C: 0.39%
[27]
  viability, T/C: 0.99%
[28]
  viability, T/C: 0.18%
[29]
  viability, T/C: 0.78%
[30]
  viability, T/C: 0.88%
[31]
  viability, T/C: 2.33%
[32]
  viability, T/C: 1.2%
[33]
  viability, T/C: 1.43%
[34]
  viability, T/C: 0.42%
[35]
  viability, T/C: 0.95%
[36]
  viability, T/C: 0.47%
[37]
  viability, T/C: 0.65%
[38]
  viability, T/C: 0.74%
[39]
  viability, T/C: 0.78%
[40]
  viability, T/C: 0.76%
[41]
  viability, T/C: 1.19%
[42]
  viability, T/C: 0.45%
